Assays:
Details in all cases: stereoisomer not certain
[1] = RP, Merck Supelco Ascentis Express C18, 100 × 2.1 mm, 2 µm, 40 °C, 0.35 mL/min, estimated dead time 0.63 min; A: water + 0.1% formic acid, pH 3; B: acetonitrile + 0.1% formic acid, pH 3; gradient (min/%B) 0/5 2/5 17/99.9 20/99.9
[2] = RP, Merck Supelco Ascentis Express C18, 100 × 2.1 mm, 2 µm, 40 °C, 0.4 mL/min, estimated dead time 0.55 min; A: water + 0.1% formic acid, pH 3; B: acetonitrile + 0.1% formic acid, pH 3; gradient (min/%B) 0/5 2/5 17/99.9 20/99.9
[3] = RP, Merck Supelco Ascentis Express C18, 100 × 2.1 mm, 2 µm, 40 °C, 0.2 mL/min, estimated dead time 1.1 min; A: water + 0.1% formic acid, pH 3; B: acetonitrile + 0.1% formic acid, pH 3; gradient (min/%B) 0/5 2/5 17/99.9 20/99.9
[4] = RP, Merck Supelco Ascentis Express C18, 100 × 2.1 mm, 2 µm, 40 °C, 0.25 mL/min, estimated dead time 0.88 min; A: water + 0.1% formic acid, pH 3; B: acetonitrile + 0.1% formic acid, pH 3; gradient (min/%B) 0/5 2/5 17/99.9 20/99.9
[5] = RP, Merck Supelco Ascentis Express C18, 100 × 2.1 mm, 2 µm, 40 °C, 0.4 mL/min, estimated dead time 0.55 min; A: water + 0.1% formic acid, pH 3; B: acetonitrile + 0.1% formic acid, pH 3; gradient (min/%B) 0/5 2/5 17/99.9 20/99.9; remark: listed apart in the source
[6] = RP, Merck Supelco Ascentis Express C18, 100 × 2.1 mm, 2 µm, 39 °C, 0.3 mL/min, estimated dead time 0.73 min; A: water + 0.1% formic acid, pH 3; B: acetonitrile + 0.1% formic acid, pH 3; gradient (min/%B) 0/5 2/5 17/99.9 20/99.9
[7] = RP, Merck Supelco Ascentis Express C18, 100 × 2.1 mm, 2 µm, 40 °C, 0.2 mL/min, estimated dead time 1.1 min; A: water + 0.1% formic acid, pH 3; B: acetonitrile + 0.1% formic acid, pH 3; gradient (min/%B) 0/5 2/5 17/99.9 20/99.9; remark: listed apart in the source

SMILES	LC retention time [1] [min]	LC retention time [2] [min]	LC retention time [3] [min]	LC retention time [4] [min]	LC retention time [5] [min]	LC retention time [6] [min]	LC retention time [7] [min]
O=C(O)c1cccc(O)c1O [2,3-DIHYDROXYBENZOATE]	3.88	1.53	5.32	2.44	1.52	2.06	5.33
CSCCC(O)C(=O)O (stereo not drawn) [2-HYDROXY-4-(METHYLTHIO)BUTANOATE]	2.15	1.9	3.75	3	1.86	2.49	3.75
O=C(O)Cc1ccccc1O [2-HYDROXYPHENYLACETATE]	3.28	2.95	4.83	4.19	2.88	3.67	4.85
CC(O)(CC(=O)O)CC(=O)O [3-HYDROXYMETHYLGLUTARATE]	0.893	0.773	1.6	1.26	0.76	1.06	1.59
N[C@@H](Cc1ccc(O)c([N+](=O)[O-])c1)C(=O)O [3-NITRO-L-TYROSINE]	1.56	1.35	2.72	2.14	1.35	1.78	2.7
CC(=O)NCCCC(=O)O [4-ACETAMIDOBUTANOATE]	0.923	0.8	1.63	1.29	0.783	1.07	1.63
O=C(O)C=Cc1ccc(O)cc1 [4-COUMARATE]	4.94	4.68	6.25	5.68	4.64	5.3	6.26
O=Cc1ccc(O)cc1 [4-HYDROXYBENZALDEHYDE]	3.94	3.64	5.46	4.82	3.59	4.34	5.47
O=C(O)c1ccc(O)cc1 [4-HYDROXYBENZOATE]	2.94	2.59	4.53	3.91	2.54	3.42	4.53
O=C(O)c1ccnc2ccccc12 [4-QUINOLINECARBOXYLATE]	0.88	0.773	1.6	1.26	0.763	1.04	1.57
CC1OC(n2cnc3c(N)ncnc32)C(O)C1O (stereo not drawn) [5'-DEOXYADENOSINE]	1.09	0.95	1.92	1.49	0.937	1.24	1.89
Cc1cc2nc[nH]c2cc1C [5,6 DIMETHYLBENZIMIDAZOLE]	4	3.79	5.17	4.67	3.76	4.28	5.16
O=C(O)Cc1c[nH]c2ccc(O)cc12 [5-HYDROXYINDOLEACETATE]	3.47	3.19	4.79	4.23	3.17	3.83	4.78
O=C(O)CCCCCC(=O)O [6-CARBOXYHEXANOATE]	3.89	3.66	5.13	4.61	3.63	4.22	5.14
COC(=O)Cc1c[nH]c2ccccc12 [INDOLE-3-METHYL ACETATE]	8.75	7.46		8.62	8.4	8.12	10.2
O=C([O-])Cc1ccccc1 [PHENYLACETATE]	4.56	3.95		3.45	3.93	4.5	4.08

Results, then the compound that gave them:

LC retention time [1] [min]	LC retention time [2] [min]	LC retention time [3] [min]	LC retention time [4] [min]	LC retention time [5] [min]	LC retention time [6] [min]	LC retention time [7] [min]	SMILES
8.9	8.61	10.4	9.77	8.56	9.28	10.4	O=C(O)c1ccc2ccccc2c1O [1-HYDROXY-2-NAPHTHOATE]
1.16	1.01	2.01	1.58	0.993	1.31	2.01	Cn1cnc2c(ncn2C2OC(CO)C(O)C2O)c1=N (stereo not drawn) [1-METHYLADENOSINE]
5.5	5.17	7	6.34	5.14	5.94	7.01	CC(=O)c1ccc(O)cc1O [2',4'-DIHYDROXYACETOPHENONE]
0.783	0.7	1.41	1.13	0.687	0.967	1.41	O=c1[nH]c(=O)c2nccnc2[nH]1 [2,4-DIHYDROXYPTERIDINE]
3.04	2.66	4.65	4.02	2.63	3.5	4.65	O=C(O)c1cc(O)ccc1O [2,5-DIHYDROXYBENZOATE]
1.76	1.53	3.06	2.44	1.52	2.06	3.05	O=C(O)c1ccc(O)c(O)c1 [3,4-DIHYDROXYBENZOATE]
2.32	1.95	3.92	3.22	2.02	2.67	3.97	O=C(O)Cc1ccc(O)c(O)c1 [3,4-DIHYDROXYPHENYLACETATE]
6.19	6.02	7.22	6.77	5.98	6.45	7.21	N[C@@H](Cc1cc(I)c(Oc2ccc(O)cc2)c(I)c1)C(=O)O [3,5-DIIODO-L-THYRONINE]
4.26	4.07	5.37	4.89	4.03	4.54	5.38	N[C@@H](Cc1cc(I)c(O)c(I)c1)C(=O)O [3,5-DIIODO-L-TYROSINE]
5.36	5.13	12.1	6.14	5.08	5.72	6.72	O=C(O)CCc1ccccc1O [3-(2-HYDROXYPHENYL)PROPANOATE]
5.5	5.17	7	6.34	5.14	5.94	7.01	O=C(O)Cc1cccc(O)c1 [3-HYDROXYPHENYLACETATE]
0.877	0.767	1.57	1.23	0.757	1.02	1.57	Cc1ncc(CO)c(C(=O)O)c1O [4-PYRIDOXATE]
0.993	0.853	1.71	1.35	0.81	1.1	1.75	NC(Cc1c[nH]c2ccc(O)cc12)C(=O)O (stereo not drawn) [5-HYDROXYTRYPTOPHAN]
16.4	16.1	18.1		16	16.8	18.2	CCCCCCCCC=CCCCCCCCC(=O)O [ELAIDATE]
0.763		1.37	1.07	0.683	0.887	1.37	C[Se]CCC(N)C(=O)O (stereo not drawn) [SELENOMETHIONINE]

— the RepoRT retention time repository (doi:10.1007/s00216-021-03828-0)
